Measurements published in patent US7632972B2, “Compounds and methods for treatment of cancer and modulation of programmed cell death for melanoma and other cancer cells” (The Board of Trustees of the University of Illionis, priority 2003, dated 2009).

What was measured:
Assay type in all cases: cell-based, human
SK-MEL-5 = assay: NCI 60 cell line screen (SRB), Melanoma
From the text: (§1) The operation of this screen utilizes 60 different human tumor cell lines, representing leukemia, melanoma and cancers of the lung, colon, brain, ovary, breast, prostate, and kidney. The aim is to prioritize for further evaluation, synthetic compounds or natural product samples showing selective growth inhibition or cell killing of particular tumor cell lines. This screen is unique in that the complexity of a 60 cell line dose response produced by a given compound results in a biological response pattern which can be utilized in pattern recognition algorithms. Using these algorithms, it is possible to assign a putative mechanism of action to a test compound, or to determine that the response pattern is unique and not similar to that of any of the standard prototype compounds included in the NCl database (see DTP Overview tab). In addition, following characterization of various cellular molecular targets in the 60 cell lines, it may be possible to select compounds most likely to interact with a specific molecular target.
(§2) The human tumor cell lines of the cancer screening panel are grown in RPMI 1640 medium containing 5% fetal bovine serum and 2 mM L-glutamine. For a typical screening experiment, cells are inoculated into 96 well microtiter plates in 100 μL at plating densities ranging from 5,000 to 40,000 cells/well depending on the doubling time of individual cell lines. After cell inoculation, the microtiter plates are incubated at 37° C., 5% CO2, 95% air and 100% relative humidity for 24 h prior to addition of experimental drugs.
(§3) After 24 h, two plates of each cell line are fixed in situ with TCA, to represent a measurement of the cell population for each cell line at the time of drug addition (Tz). Experimental drugs are solubilized in dimethyl sulfoxide at 400-fold the desired final maximum test concentration and stored frozen prior to use. At the time of drug addition, an aliquot of frozen concentrate is thawed and diluted to twice the desired final maximum test concentration with complete medium containing 50 μg/ml gentamicin. Additional four, 10-fold or ½ log serial dilutions are made to provide a total of five drug concentrations plus control. Aliquots of 100 μl of these different drug dilutions are added to the appropriate microtiter wells already containing 100 μl of medium, resulting in the required final drug concentrations.
(§4) Following drug addition, the plates are incubated for an additional 48 h at 37° C., 5% CO2, 95% air, and 100% relative humidity. For adherent cells, the assay is terminated by the addition of cold TCA. Cells are fixed in situ by the gentle addition of 50 μl of cold 50% (w/v) TCA (final concentration, 10% TCA) and incubated for 60 minutes at 4° C. The supernatant is discarded, and the plates are washed five times with tap water and air dried. Sulforhodamine B (SRB) solution (100 μl) at 0.4% (w/v) in 1% acetic acid is added to each well, and plates are incubated for 10 minutes at room temperature. After staining, unbound dye is removed by washing five times with 1% acetic acid and the plates are air dried. Bound stain is subsequently solubilized with 10 mM trizma base, and the absorbance is read on an automated plate reader at a wavelength of 515 nm. For suspension cells, the methodology is the same except that the assay is terminated by fixing settled cells at the bottom of the wells by gently adding 50 μl of 80% TCA (final concentration, 16% TCA). Using the seven absorbance measurements [time zero, (Tz), control growth, (C), and test growth in the presence of drug at the five concentration levels (Ti)], the percentage growth is calculated at each of the drug concentrations levels. Percentage growth inhibition is calculated as: [(Ti−Tz)/(C−Tz)]×100 for concentrations for which Ti>/=Tz [(Ti−Tz)/Tz]×100 for concentrations for which Ti<Tz.
(§5) Three dose response parameters are calculated for each experimental agent. […]

HOP-92 = assay: NCI 60 cell line screen (SRB), Non-Small Cell Lung Cancer
From the text: as §1, §2, §3, §4, §5

A549/ATCC = assay: as above
From the text: as §1, §2, §3, §4, §5

NCI-H460 = assay: as above
From the text: as §1, §2, §3, §4, §5

NCI-H522 = assay: as above
From the text: as §1, §2, §3, §4, §5

MOLT-4 = assay: NCI 60 cell line screen (SRB), Leukemia
From the text: as §1, §2, §3, §4, §5

RPMI-8226 = assay: NCI 60 cell line screen (SRB), Leukemia
From the text: as §1, §2, §3, §4, §5

CCRF-CEM = assay: NCI 60 cell line screen (SRB), Leukemia
From the text: as §1, §2, §3, §4, §5

K-562 = assay: NCI 60 cell line screen (SRB), Leukemia
From the text: as §1, §2, §3, §4, §5

[1] = read-out: LC50 (the source's name)

## COc1cccc(CCNC(=O)CC(c2ccccc2)(c2ccccc2)c2ccccc2)c1 [Compound Z3]
SK-MEL-5; SK-MEL-5
  GI50: 4.84 µM
  TGI: >1.00E−04
SK-MEL-5; SK-MEL-5, Log10 Concentration −4.0
  Percent Growth: 15%
SK-MEL-5; SK-MEL-5, Log10 Concentration −5.0
  Percent Growth: 21%
SK-MEL-5; SK-MEL-5, Log10 Concentration −6.0
  Percent Growth: 113%
SK-MEL-5; SK-MEL-5, Log10 Concentration −7.0
  Percent Growth: 112%
SK-MEL-5; SK-MEL-5, Log10 Concentration −8.0
  Percent Growth: 80%
SK-MEL-5; SK-MEL-5, read-out: LC50 (the source's name)
  CC50: > 100 µM
HOP-92; HOP-92
  GI50: > 100 µM
  TGI: >1.00E−04
HOP-92; HOP-92, Log10 Concentration −4.0
  Percent Growth: 68%
HOP-92; HOP-92, Log10 Concentration −5.0
  Percent Growth: 70%
HOP-92; HOP-92, Log10 Concentration −6.0
  Percent Growth: 94%
HOP-92; HOP-92, Log10 Concentration −7.0
  Percent Growth: 94%
HOP-92; HOP-92, Log10 Concentration −8.0
  Percent Growth: 99%
HOP-92; HOP-92, read-out: LC50 (the source's name)
  CC50: > 100 µM
A549/ATCC
  GI50: 4.11 µM
  TGI: 9.65E−05
A549/ATCC; Log10 Concentration −5.0
  Percent Growth: 25%
A549/ATCC; Log10 Concentration −6.0
  Percent Growth: 89%
A549/ATCC; Log10 Concentration −7.0
  Percent Growth: 94%
A549/ATCC; Log10 Concentration −8.0
  Percent Growth: 102%
A549/ATCC; [1]
  CC50: > 100 µM
NCI-H460; NCI-H460
  GI50: 10.5 µM
  TGI: >1.00E−04
NCI-H460; NCI-H460, Log10 Concentration −4.0
  Percent Growth: 18%
NCI-H460; NCI-H460, Log10 Concentration −5.0
  Percent Growth: 51%
NCI-H460; NCI-H460, Log10 Concentration −6.0
  Percent Growth: 90%
NCI-H460; NCI-H460, Log10 Concentration −7.0
  Percent Growth: 117%
NCI-H460; NCI-H460, Log10 Concentration −8.0
  Percent Growth: 97%
NCI-H460; NCI-H460, read-out: LC50 (the source's name)
  CC50: > 100 µM
NCI-H522; NCI-H522
  TGI: 8.45E−05
NCI-H522; NCI-H522, Log10 Concentration −4.0
  Percent Growth: −1%
NCI-H522; NCI-H522, Log10 Concentration −5.0
  Percent Growth: 12%
NCI-H522; NCI-H522, Log10 Concentration −6.0
  Percent Growth: 58%
NCI-H522; NCI-H522, Log10 Concentration −7.0
  Percent Growth: 46%
NCI-H522; NCI-H522, Log10 Concentration −8.0
  Percent Growth: 67%
NCI-H522; NCI-H522, read-out: LC50 (the source's name)
  CC50: > 100 µM
MOLT-4; MOLT-4
  GI50: 6.01 µM
  TGI: >1.00E−04
MOLT-4; MOLT-4, Log10 Concentration −4.0
  Percent Growth: 33%
MOLT-4; MOLT-4, Log10 Concentration −5.0
  Percent Growth: 34%
MOLT-4; MOLT-4, Log10 Concentration −6.0
  Percent Growth: 107%
MOLT-4; MOLT-4, Log10 Concentration −7.0
  Percent Growth: 123%
MOLT-4; MOLT-4, Log10 Concentration −8.0
  Percent Growth: 116%
MOLT-4; MOLT-4, read-out: LC50 (the source's name)
  CC50: > 100 µM
RPMI-8226; RPMI-8226
  GI50: 4.98 µM
  TGI: >1.00E−04
RPMI-8226; RPMI-8226, Log10 Concentration −4.0
  Percent Growth: 24%
RPMI-8226; RPMI-8226, Log10 Concentration −5.0
  Percent Growth: 29%
RPMI-8226; RPMI-8226, Log10 Concentration −6.0
  Percent Growth: 98%
RPMI-8226; RPMI-8226, Log10 Concentration −7.0
  Percent Growth: 100%
RPMI-8226; RPMI-8226, Log10 Concentration −8.0
  Percent Growth: 92%
RPMI-8226; RPMI-8226, read-out: LC50 (the source's name)
  CC50: > 100 µM
CCRF-CEM
  GI50: 8.16 µM
  TGI: >1.00E−04
CCRF-CEM; Log10 Concentration −4.0
  Percent Growth: 34%
CCRF-CEM; Log10 Concentration −5.0
  Percent Growth: 48%
CCRF-CEM; Log10 Concentration −6.0
  Percent Growth: 74%
CCRF-CEM; Log10 Concentration −7.0
  Percent Growth: 94%
CCRF-CEM; Log10 Concentration −8.0
  Percent Growth: 62%
CCRF-CEM; [1]
  CC50: > 100 µM
K-562; K-562
  GI50: 6.03 µM
  TGI: >1.00E−04
K-562; K-562, Log10 Concentration −4.0
  Percent Growth: 32%
K-562; K-562, Log10 Concentration −5.0
  Percent Growth: 36%
K-562; K-562, Log10 Concentration −6.0
  Percent Growth: 100%
K-562; K-562, Log10 Concentration −7.0
  Percent Growth: 100%
K-562; K-562, Log10 Concentration −8.0
  Percent Growth: 102%
K-562; K-562, read-out: LC50 (the source's name)
  CC50: > 100 µM
